Results on 28 molecules are retold here after ChEMBL document CHEMBL1133937, “New 1-aryl-4-(biarylmethylene)piperazines as potential atypical antipsychotics sharing dopamine D(2)-receptor and serotonin 5-HT(1A)-receptor affinities” (Bioorg Med Chem Lett, 2001).

Where only a bound is given, the exact number is not on record here.

Experiment [1] concerns the target T1, 5-hydroxytryptamine receptor 1A (Homo sapiens, UniProt P08908).
T1 sequence (P08908 whole entry): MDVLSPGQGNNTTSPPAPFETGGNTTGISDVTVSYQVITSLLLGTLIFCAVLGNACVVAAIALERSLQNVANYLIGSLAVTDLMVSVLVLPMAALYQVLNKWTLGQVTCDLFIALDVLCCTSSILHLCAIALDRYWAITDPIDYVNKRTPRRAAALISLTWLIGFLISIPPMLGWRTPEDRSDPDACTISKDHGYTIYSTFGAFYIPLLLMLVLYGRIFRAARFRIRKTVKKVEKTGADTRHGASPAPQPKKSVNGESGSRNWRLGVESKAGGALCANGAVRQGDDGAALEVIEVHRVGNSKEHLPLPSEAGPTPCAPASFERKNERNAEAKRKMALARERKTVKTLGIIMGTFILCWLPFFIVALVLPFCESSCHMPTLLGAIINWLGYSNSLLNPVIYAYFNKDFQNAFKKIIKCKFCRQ
Nature of the experiment: Binding affinity for 5-hydroxytryptamine 1A receptor determined using [3H]8-OH-DPAT as radioligand.

Another experiment has as its system Mus musculus. Nature of the experiment: In vivo inhibition of the apomorphine-induced climbing behavior in mice. It counts as functional.
Experiment [2] relates to Rattus norvegicus. Nature of the experiment: Tested for occurrence of lower lip retraction in rat after po administration of the compound. The experiment is classed as functional.
Experiment [3] relates to Rattus norvegicus. The experiment is described as follows: In vivo suppression of the conditioned avoidance response (CAR) in rats after ip administration of the compound. It counts as functional.
In experiment [4] the test system is Rattus norvegicus. The experiment is described as follows: In vivo suppression of the conditioned avoidance response (CAR) in rats after po administration of the compound. It counts as functional.

Take `COc1cccc(-c2cccc(CN3CCN(c4cccc5[nH]c(=O)oc45)CC3)c2)c1`: the Ki in experiment [1] stood at 21 nM.
On the same count and under the same terms, with `Fc1ccc(-c2ccc(CN3CCN(c4cccc5ccoc45)CC3)[nH]2)cc1` [ELOPIPRAZOLE] the figure was 1.5 nM; with `O=C1COc2c(cccc2N2CCN(Cc3cccc(-c4ccccc4)c3)CC2)N1`, 49 nM.
`Oc1nc2cccc(N3CCN(Cc4ccc(O)c(-c5ccccc5)c4)CC3)c2o1` registered a Ki in experiment [1] of 7.6 nM. For the same molecule, the ED50 was 7 mg/kg with Mus musculus, more than 30 mg/kg in the experiment with Rattus norvegicus [2] and 20 mg/kg with Rattus norvegicus [3].
Turning to `Cn1c(=O)oc2c(N3CCN(Cc4cccc(-c5ccccc5)c4)CC3)cccc21`, the affinity in experiment [1], expressed as Ki, was 130 nM.
On the same count and under the same terms, for `Oc1nc2cccc(N3CCN(Cc4cccc(-c5ccc(F)cc5)n4)CC3)c2o1` the value was 200 nM.
As for `O=c1[nH]c2cccc(N3CCN(Cc4cccc(-c5ccccc5)c4)CC3)c2o1` [BIFEPRUNOX], the median effective dose (ED50) was 0.8 mg/kg with Rattus norvegicus [4], 0.1 mg/kg in the experiment with Mus musculus and 10 mg/kg with Rattus norvegicus [2]. Further, the Ki in experiment [1] amounted to 9.3 nM.
`Cc1cccc(-c2cccc(CN3CCN(c4cccc5[nH]c(=O)oc45)CC3)c2)c1`: the Ki in experiment [1] stood at 35 nM.
Same read-out and setting: with `c1ccc(-c2cccc(CN3CCN(c4cccc5c4OCCO5)CC3)c2)cc1` the figure was 0.91 nM.
Take `N#Cc1cccc(-c2cccc(CN3CCN(c4cccc5nc(O)oc45)CC3)c2)c1`: the inhibitory constant (Ki) in experiment [1] is 23 nM.
Same read-out and setting: for `c1ccc(-c2cccc(CN3CCN(c4cccc5c4OCCN5)CC3)c2)cc1` the value was 26 nM.
Same read-out and setting: for `N#Cc1ccccc1-c1cccc(CN2CCN(c3cccc4nc(O)oc34)CC2)c1` the value was 32 nM.
Take `Oc1nc2cccc(N3CCN(Cc4cncc(-c5ccccc5)c4)CC3)c2o1`: the ED50 with Rattus norvegicus [4] was found to be 0.4 mg/kg; in the experiment on Mus musculus it was 0.1 mg/kg; in the experiment with Rattus norvegicus [2], 3 mg/kg. Moreover, the inhibitory constant (Ki) in experiment [1] came to 7.8 nM.
For the molecule `O=c1[nH]c2cccc(N3CCN(Cc4cccc(-c5cccs5)c4)CC3)c2o1`, the affinity in experiment [1] corresponds to a Ki of 32 nM.
For `Oc1nc2cccc(N3CCN(Cc4cccc(-c5ccsc5)c4)CC3)c2o1`, in experiment [1], the inhibition constant (Ki) is 17 nM. The results for the ED50 in the experiment with Mus musculus, in the experiment on Rattus norvegicus [2] and in the experiment on Rattus norvegicus [3] were 0.2 mg/kg, more than 30 mg/kg and more than 20 mg/kg, respectively.
`O=C(NCCN1CCN(c2cccc3nc(O)oc23)CC1)c1ccc(F)cc1`: the Ki in experiment [1] was 7.9 nM.
`Oc1nc2cccc(N3CCN(Cc4cc(-c5ccc(F)cc5)ccn4)CC3)c2o1`: the ED50 in the experiment with Rattus norvegicus [4] is less than 10 mg/kg; in the experiment with Mus musculus it was 0.1 mg/kg; in the experiment on Rattus norvegicus [2] it was more than 30 mg/kg. The affinity in experiment [1] corresponds to a Ki of 16 nM.
The molecule `Oc1nc2cccc(N3CCN(Cc4cccc(-c5cccc(Cl)c5)c4)CC3)c2o1` returned a Ki in experiment [1] of 42 nM.
As for `O=C(CCCN1CCC(O)(c2ccc(Cl)cc2)CC1)c1ccc(F)cc1` [HALOPERIDOL], the ED50 stood at 0.3 mg/kg in the experiment with Rattus norvegicus [4] and 0.2 mg/kg in the experiment on Mus musculus.
Molecule `c1ccc(-c2cccc(CN3CCN(c4cccc5c4CCCN5)CC3)c2)cc1` displayed a Ki in experiment [1] of 85 nM.
The same measure, in the same setting: for `O=c1[nH]c2cccc(N3CCN(Cc4ccnc(-c5ccc(F)cc5)c4)CC3)c2o1` the value was 21 nM; for `c1ccc(-c2cccc(CN3CCN(c4cccc5ccoc45)CC3)c2)cc1`, 38 nM.
With `CN1CCN(C2=Nc3cc(Cl)ccc3Nc3ccccc32)CC1` [CLOZAPINE], the 50% effective dose (ED50) turned out to be 32 mg/kg in the experiment on Rattus norvegicus [4] and 22 mg/kg with Mus musculus.
The corresponding values for `Cc1nc2n(c(=O)c1CCN1CCC(c3noc4cc(F)ccc34)CC1)CCCC2` [RISPERIDONE] are 1 mg/kg and 0.1 mg/kg.
In experiment [1], `O=c1[nH]c2cccc(N3CCN(Cc4cc(-c5ccccc5)ccc4F)CC3)c2o1` registered a Ki of 41 nM.
The same measure, in the same setting: for `Oc1nc2cccc(N3CCN(Cc4cccc(-c5ccc(F)cc5)c4)CC3)c2o1` the value was 14 nM.
On the same count and under the same terms, for `COc1ccccc1N1CCN(CCNC(=O)c2ccc(F)cc2)CC1` the value was 1 nM; for `c1ccc(-c2cccc(CN3CCN(c4cccc5c4OCO5)CC3)c2)cc1`, 15 nM.

Broadly, the Ki is the dissociation constant of the complex between target and ligand, obtained from inhibition or displacement. Broadly, the ED50 is the dose at which the effect has come halfway, by size or by number of responders. Lower therefore signals an effect at a small dose.
